Measured values reported in patent US20260132132A1, “3A,4,5,6-TETRAHYDRO-1 H-PYRAZOLO[3,4-C]PYRIDIN-7(7AH)-ONE DERIVATIVES AS FACTOR XIIA INHIBITORS” (KALVISTA PHARMACEUTICALS LIMITED, priority 2022, published 2026).

How the values were obtained:
[1] = biological target: T1, Human Factor XIIa (hFXIIa) (Homo sapiens, UniProt P00748); assay: Determination of Human Factor XIIa (hFXIIa) inhibition, fluorogenic substrate IC50 assay; format: biochemical; settings: fluorogenic substrate H-DPro-Phe-Arg-AFC at Km, 25° C., read-out: Human FXIIa IC50
T1 construct: purchased Enzyme Research Laboratories
T1 sequence (P00748 373-615 limits assumed): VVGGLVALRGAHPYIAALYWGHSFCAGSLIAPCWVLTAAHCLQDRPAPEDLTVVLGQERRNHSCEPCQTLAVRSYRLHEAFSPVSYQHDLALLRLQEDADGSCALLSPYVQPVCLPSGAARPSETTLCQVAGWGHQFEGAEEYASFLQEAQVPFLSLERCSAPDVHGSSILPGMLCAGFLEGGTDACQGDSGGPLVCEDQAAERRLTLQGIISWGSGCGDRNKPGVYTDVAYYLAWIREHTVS
T1 sequence (P00748 20-372 partner limits assumed): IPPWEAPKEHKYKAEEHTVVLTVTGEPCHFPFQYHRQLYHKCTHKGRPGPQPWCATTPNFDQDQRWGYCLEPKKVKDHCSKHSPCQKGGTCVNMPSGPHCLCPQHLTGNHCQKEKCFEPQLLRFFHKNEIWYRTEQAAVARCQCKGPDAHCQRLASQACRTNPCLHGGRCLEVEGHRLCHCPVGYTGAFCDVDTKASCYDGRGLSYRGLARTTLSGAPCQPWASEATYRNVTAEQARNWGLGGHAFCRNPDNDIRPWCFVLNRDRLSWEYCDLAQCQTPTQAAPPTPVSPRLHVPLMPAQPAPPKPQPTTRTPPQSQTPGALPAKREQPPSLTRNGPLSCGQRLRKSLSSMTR
Protocol: Determination of Human Factor XIIa (hFXIIa) inhibition
The Km for the cleavage of the substrate by hFXIIa was determined by standard transformation of the Michaelis-Menten equation, with subsequent inhibition assays performed at substrate Km concentration.

[2] = biological target: FXa (Homo sapiens, UniProt P00742); assay: Related protease inhibition: FXa, fluorogenic substrate; format: biochemical; settings: fluorogenic substrate at Km, 25° C.; H1-H3 = % activity at 40 μM
Protocol: Human serine protease enzyme Plasma Kallikrein, KLK1, FXa, Plasmin, Thrombin and Trypsin were assayed for enzymatic activity using an appropriate fluorogenic substrate at Km concentration, FXIa at fixed substrate concentration of 100 μM and various concentrations of the test compound.

Sequence of FXa (P00742 235-488 limits assumed): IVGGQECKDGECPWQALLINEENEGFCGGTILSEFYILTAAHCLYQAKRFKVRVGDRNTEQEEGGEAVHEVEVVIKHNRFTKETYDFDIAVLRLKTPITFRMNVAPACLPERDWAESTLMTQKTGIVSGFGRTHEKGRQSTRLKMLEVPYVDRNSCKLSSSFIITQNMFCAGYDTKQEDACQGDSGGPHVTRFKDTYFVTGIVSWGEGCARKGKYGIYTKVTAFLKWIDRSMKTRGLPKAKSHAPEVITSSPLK
Sequence of FXa (P00742 41-179 partner limits assumed): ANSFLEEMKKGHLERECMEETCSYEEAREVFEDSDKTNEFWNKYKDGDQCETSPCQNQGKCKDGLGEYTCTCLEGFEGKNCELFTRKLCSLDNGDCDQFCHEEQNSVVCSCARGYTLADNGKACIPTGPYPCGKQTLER

| Structure (SMILES) | IC50 [1] [nM] | IC50 [2] [µM] |
| --- | --- | --- |
| CN1CCc2ccc(N3CCc4c(COCC(=O)O)nn(-c5cccc(Cl)c5)c4C3=O)cc2C1=O [Example 1358, 2-((1-(3-chlorophenyl)-6-(2-methyl-1-oxo-1,2,3,4-tetrahydroisoquinolin-7-yl)-7-oxo-4,5,6,7-tetrahydro-1H-pyrazolo[3,4-c]pyridin-3-yl)methoxy)acetic acid] | 1000 to 3000 | 3 to 10 |
| CN1CCc2ccc(N3CCc4c(C(=O)NC5(C)CC5)nn(-c5cccc(Cl)c5)c4C3=O)cc2C1=O [Example 1359, 1-(3-chlorophenyl)-6-(2-methyl-1-oxo-1,2,3,4-tetrahydroisoquinolin-7-yl)-N-(1-methylcyclopropyl)-7-oxo-4,5,6,7-tetrahydro-1H-pyrazolo[3,4-c]pyridine-3-carboxamide] | 300 to 1000 | > 40 |
| CN1CCc2ccc(N3CCc4c(C(=O)NC5(CO)CC5)nn(-c5cccc(Cl)c5)c4C3=O)cc2C1=O [Example 1360, 1-(3-chlorophenyl)-N-(1-(hydroxymethyl)cyclopropyl)-6-(2-methyl-1-oxo-1,2,3,4-tetrahydroisoquinolin-7-yl)-7-oxo-4,5,6,7-tetrahydro-1H-pyrazolo[3,4-c]pyridine-3-carboxamide] | 300 to 1000 | 10 to 40 |
| CCNC(=O)c1nn(-c2cccc(Cl)c2)c2c1CCN(c1cccc(N3CCOC3=O)c1)C2=O [Example 1362, 1-(3-chlorophenyl)-N-ethyl-7-oxo-6-(3-(2-oxooxazolidin-3-yl)phenyl)-4,5,6,7-tetrahydro-1H-pyrazolo[3,4-c]pyridine-3-carboxamide] | 3000 to 10000 | > 40 |
| CCNC(=O)c1nn(-c2cccc(Cl)c2)c2c1CCN(c1cccc(N3CCCOC3=O)c1)C2=O [Example 1363, 1-(3-chlorophenyl)-N-ethyl-7-oxo-6-(3-(2-oxo-1,3-oxazinan-3-yl)phenyl)-4,5,6,7-tetrahydro-1H-pyrazolo[3,4-c]pyridine-3-carboxamide] | 3000 to 10000 | > 40 |
| CCNC(=O)c1nn(-c2cccc(Cl)c2)c2c1CCN(c1cccc(N3CCN(C)C3=O)c1)C2=O [Example 1364, 1-(3-chlorophenyl)-N-ethyl-6-(3-(3-methyl-2-oxoimidazolidin-1-yl)phenyl)-7-oxo-4,5,6,7-tetrahydro-1H-pyrazolo[3,4-c]pyridine-3-carboxamide] | 1000 to 3000 | > 40 |
| CCNC(=O)c1nn(-c2cccc(Cl)c2)c2c1CCN(c1cccc(N3C(=O)CC4CC43)c1)C2=O (stereo not shown) [Example 1367, 1-(3-Chlorophenyl)-N-ethyl-7-oxo-6-(3-(3-oxo-2-azabicyclo[3.1.0]hexan-2-yl)phenyl)-4,5,6,7-tetrahydro-1H-pyrazolo[3,4-c]pyridine-3-carboxamide] | 300 to 1000 | 10 to 40 |
| Cc1cc(CNC(=O)c2nn(-c3cccc(Cl)c3)c3c2CCN(c2ccc4c(c2)C(=O)N(C)CC(=O)N4C)C3=O)n[nH]1 [Example 1370, 1-(3-chlorophenyl)-6-(1,4-dimethyl-2,5-dioxo-2,3,4,5-tetrahydro-1H-benzo[e][1,4]diazepin-7-yl)-N-((5-methyl-1H-pyrazol-3-yl)methyl)-7-oxo-4,5,6,7-tetrahydro-1H-pyrazolo[3,4-c]pyridine-3-carboxamide] | 300 to 1000 | 10 to 40 |
| CCNC(=O)c1nn(-c2cccc(Cl)c2)c2c1CCN(c1ccc3c(c1)C(=O)N(CC)CCO3)C2=O [Example 1371, 1-(3-chlorophenyl)-N-ethyl-6-(4-ethyl-5-oxo-2,3,4,5-tetrahydrobenzo[f][1,4]oxazepin-7-yl)-7-oxo-4,5,6,7-tetrahydro-1H-pyrazolo[3,4-c]pyridine-3-carboxamide] | 100 to 300 | 10 to 40 |
| CCN1CCOc2ccc(N3CCc4c(C(=O)NCC5CC5)nn(-c5cccc(Cl)c5)c4C3=O)cc2C1=O [Example 1374, 1-(3-chlorophenyl)-N-(cyclopropylmethyl)-6-(4-ethyl-5-oxo-2,3,4,5-tetrahydrobenzo[f][1,4]oxazepin-7-yl)-7-oxo-4,5,6,7-tetrahydro-1H-pyrazolo[3,4-c]pyridine-3-carboxamide] | 100 to 300 | 10 to 40 |

Second part, the compound after the results:

| IC50 [1] [nM] | IC50 [2] [µM] | Structure (SMILES) |
| --- | --- | --- |
| 1000 to 3000 | 10 to 40 | CN1CCc2ccc(N3CCc4c(C(=O)NC5(C(=O)O)CC5)nn(-c5cccc(Cl)c5)c4C3=O)cc2C1=O [Example 1361, 1-(1-(3-chlorophenyl)-6-(2-methyl-1-oxo-1,2,3,4-tetrahydroisoquinolin-7-yl)-7-oxo-4,5,6,7-tetrahydro-1H-pyrazolo[3,4-c]pyridine-3-carboxamido)cyclopropane-1-carboxylic acid] |
| 1000 to 3000 | > 40 | CCNC(=O)c1nn(-c2cccc(Cl)c2)c2c1CCN(c1cccc(N3CCCC3=O)c1)C2=O [Example 1365, 1-(3-chlorophenyl)-N-ethyl-7-oxo-6-(3-(2-oxopyrrolidin-1-yl)phenyl)-4,5,6,7-tetrahydro-1H-pyrazolo[3,4-c]pyridine-3-carboxamide] |
| 3000 to 10000 | 10 to 40 | CCNC(=O)c1nn(-c2cccc(Cl)c2)c2c1CCN(c1cccc(N3CCCS3(=O)=O)c1)C2=O [Example 1366, 1-(3-chlorophenyl)-6-(3-(1,1-dioxidoisothiazolidin-2-yl)phenyl)-N-ethyl-7-oxo-4,5,6,7-tetrahydro-1H-pyrazolo[3,4-c]pyridine-3-carboxamide] |
| 1000 to 3000 | > 40 | CCNC(=O)c1nn(-c2cccc(Cl)c2)c2c1CCN(c1cccc(N3CC4CC4C3=O)c1)C2=O (stereo not shown) [Example 1368, 1-(3-chlorophenyl)-N-ethyl-7-oxo-6-(3-(2-oxo-3-azabicyclo[3.1.0]hexan-3-yl)phenyl)-4,5,6,7-tetrahydro-1H-pyrazolo[3,4-c]pyridine-3-carboxamide] |
| 3000 to 10000 | > 40 | CCNC(=O)c1nn(-c2cccc(Cl)c2)c2c1CCN(c1cccc(N3CC4(CC4)N(C)C3=O)c1)C2=O [Example 1369, 1-(3-chlorophenyl)-N-ethyl-6-(3-(4-methyl-5-oxo-4,6-diazaspiro[2.4]heptan-6-yl)phenyl)-7-oxo-4,5,6,7-tetrahydro-1H-pyrazolo[3,4-c]pyridine-3-carboxamide] |
| 300 to 1000 | 10 to 40 | Cc1cc(CNC(=O)c2nn(-c3cccc(Cl)c3)c3c2CCN(c2ccc4c(c2)C(=O)N(C)CC(=O)N4C)C3=O)nn1C [Example 1372, 1-(3-chlorophenyl)-N-((1,5-dimethyl-1H-pyrazol-3-yl)methyl)-6-(1,4-dimethyl-2,5-dioxo-2,3,4,5-tetrahydro-1H-benzo[e][1,4]diazepin-7-yl)-7-oxo-4,5,6,7-tetrahydro-1H-pyrazolo[3,4-c]pyridine-3-carboxamide] |
| 300 to 1000 | > 40 | Cc1cc(CNC(=O)c2nn(-c3cccc(Cl)c3)c3c2CCN(c2ccc4c(c2)C(=O)N(CCO)[C@H](C)CO4)C3=O)n[nH]1 [Example 1373, (R)-1-(3-chlorophenyl)-6-(4-(2-hydroxyethyl)-3-methyl-5-oxo-2,3,4,5-tetrahydrobenzo[f][1,4]oxazepin-7-yl)-N-((5-methyl-1H-pyrazol-3-yl)methyl)-7-oxo-4,5,6,7-tetrahydro-1H-pyrazolo[3,4-c]pyridine-3-carboxamide] |
